Experimental data taken from patent publication US10703756B2, “Pyrrolo[2,3-D]pyrimidinyl, pyrrolo[2,3-B]pyrazinyl, pyrrolo[2,3-B]pyridinyl acrylamides and epoxides thereof” (Pfizer Inc., priority 2015, dated 2020).

Experiments:
JAK3 enzyme [1] = molecular target: T1, JAK3 enzyme (Homo sapiens, UniProt P52333); experiment: JAK Caliper Enzyme Assay at 4 μM ATP; assay type: biochemical
T1 sequence (P52333 1-1124): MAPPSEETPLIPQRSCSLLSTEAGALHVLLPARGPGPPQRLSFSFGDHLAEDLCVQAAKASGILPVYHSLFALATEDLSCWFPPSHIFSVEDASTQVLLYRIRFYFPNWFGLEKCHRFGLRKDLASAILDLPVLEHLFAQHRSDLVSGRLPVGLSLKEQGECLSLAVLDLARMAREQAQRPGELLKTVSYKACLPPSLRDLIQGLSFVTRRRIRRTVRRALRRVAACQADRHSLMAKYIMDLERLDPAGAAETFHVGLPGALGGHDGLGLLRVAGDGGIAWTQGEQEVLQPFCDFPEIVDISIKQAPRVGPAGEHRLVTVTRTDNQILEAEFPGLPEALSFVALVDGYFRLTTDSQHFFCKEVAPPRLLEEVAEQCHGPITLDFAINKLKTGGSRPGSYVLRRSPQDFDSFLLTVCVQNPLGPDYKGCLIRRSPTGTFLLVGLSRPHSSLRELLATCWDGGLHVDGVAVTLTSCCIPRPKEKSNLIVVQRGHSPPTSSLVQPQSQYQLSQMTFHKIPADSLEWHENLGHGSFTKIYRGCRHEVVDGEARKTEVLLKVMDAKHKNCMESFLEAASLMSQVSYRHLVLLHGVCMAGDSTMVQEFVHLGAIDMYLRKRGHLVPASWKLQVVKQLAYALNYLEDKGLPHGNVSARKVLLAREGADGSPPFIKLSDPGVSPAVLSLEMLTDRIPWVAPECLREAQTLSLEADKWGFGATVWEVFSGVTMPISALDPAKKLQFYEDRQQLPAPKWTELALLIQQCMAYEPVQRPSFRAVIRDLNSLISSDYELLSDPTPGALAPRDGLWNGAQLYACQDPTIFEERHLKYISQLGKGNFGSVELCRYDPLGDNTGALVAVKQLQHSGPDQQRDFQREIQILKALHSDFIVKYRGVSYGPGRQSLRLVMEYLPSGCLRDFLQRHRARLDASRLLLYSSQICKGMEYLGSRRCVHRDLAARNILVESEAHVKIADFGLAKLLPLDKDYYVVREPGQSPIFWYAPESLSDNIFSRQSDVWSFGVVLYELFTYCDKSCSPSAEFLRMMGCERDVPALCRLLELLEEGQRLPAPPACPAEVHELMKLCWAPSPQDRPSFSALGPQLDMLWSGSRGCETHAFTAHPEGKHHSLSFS
Procedure, shortened: (§1)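 Compound tested as 11-point half-log DMSO dilution series (top 600 μM in DMSO, a dilution-plate level). Enzyme level and time set for 20%-30% peptide phosphorylation; phosphorylated and unphosphorylated peptide separated and quantified by Caliper LC3000 mobility shift.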

JAK3 enzyme [2] = molecular target: T1, JAK3 enzyme; experiment: JAK Caliper Enzyme Assay at 1 mM ATP; assay type: biochemical
Procedure, shortened: as §1

SMILES	IC50 (JAK3 enzyme [1]) [nM]	IC50 (JAK3 enzyme [2]) [nM]
C=CC(=O)N1CCN(c2cnc3[nH]cc(C(=O)N[C@@H](COC)c4ccccc4)c3n2)CC1(C)C [Example 138, 2-(4-acryloyl-3,3-dimethylpiperazin-1-yl)-N-[(1R)-2-methoxy-1-phenylethyl]-5H-pyrrolo[2,3-b]pyrazine-7-carboxamide]	46.7	4840
C=CC(=O)N1CCC(COc2cnc3[nH]cc(C(=O)N[C@@H](C)COC)c3n2)C1 (mixture of isomers) [Example 10, Racemic-2-[(1-acryloylpyrrolidin-3-yl)methoxyl]-N-[(2S)-1-methoxypropan-2-yl]-5H-pyrrolo[2,3-b]pyrazine-7-carboxamide]	2.77	632
C=CC(=O)N1CCC(Oc2cnc3[nH]cc(C(=O)NCCCC)c3c2)CC1 [Example 348, 5-[(1-acryloylpiperidin-4-yl)oxy]-N-butyl-1H-pyrrolo[2,3-b]pyridine-3-carboxamide]	10.2	1190
C=CC(=O)N1C[C@@H](Nc2ncnc3[nH]ccc23)CC[C@H]1COC (single isomer, unassigned) [Example 96]	433	> 10000
C=CC(=O)N1C[C@H](Nc2cnc3[nH]cc(C(=O)NCC)c3n2)C[C@H]1COC [Example 239, 2-{[(3R,5S)-1-acryloyl-5-(methoxymethyl)pyrrolidin-3-yl]amino}-N-ethyl-5H-pyrrolo[2,3-b]pyrazine-7-carboxamide]	3.78	757
C=CC(=O)N1CC[C@@H](OC)[C@@H](Nc2cnc3[nH]cc(C(=O)N[C@H](C)COC)c3n2)C1 (single isomer, unassigned) [Example 5]	0.408	46
C=CC(=O)N1CCN(c2cnc3[nH]cc(C(=O)NC(CO)c4ccc(F)cc4)c3n2)CC1(C)C (racemic) [Example 165, Racemic-2-(4-acryloyl-3,3-dimethylpiperazin-1-yl)-N-[1-(4-fluorophenyl)-2-hydroxyethyl]-5H-pyrrolo[2,3-b]pyrazine-7-carboxamide]	10.7	957
C=CC(=O)N1C[C@@H](C)[C@@H](Nc2cnc3[nH]cc(C(=O)NCCOC)c3n2)C1 (stereo in doubt) [Example 253, 2-[(1-acryloyl-4-methylpyrrolidin-3-yl)amino]-N-(2-methoxyethyl)-5H-pyrrolo[2,3-b]pyrazine-7-carboxamide]	72	7680
C=CC(=O)N1CCN(c2cnc3[nH]cc(C(=O)N[C@H]4CCOC4)c3n2)CC1(C)C [Example 150, 2-(4-acryloyl-3,3-dimethylpiperazin-1-yl)-N-[(3S)-tetrahydrofuran-3-yl] 5H-pyrrolo[2,3-b]pyrazine-7-carboxamide]	8.09	1110
C=CC(=O)N1CCN(c2cnc3[nH]cc(C(=O)NC4CCOC4)c3n2)CC1(C)C (racemic) [Example 164, Racemic-2-(4-acryloyl-3,3-dimethylpiperazin-1-yl)-N-(tetrahydrofuran-3-yl)-5H-pyrrolo[2,3-b]pyrazine-7-carboxamide]	4.34	726
C=CC(=O)N1C[C@@H](CC)[C@@H](Nc2cnc3[nH]cc(C(=O)NCC)c3n2)C1 [Example 263, 2-{[(3R,4R)-1-acryloyl-4-ethylpyrrolidin-3-yl]amino}-N-ethyl-5H-pyrrolo[2,3-b]pyrazine-7-carboxamide]	52.4	6460
C=CC(=O)N1CCC(Oc2cnc3[nH]cc(C(=O)NCc4ccccc4)c3c2)CC1 [Example 342, 5-[(1-acryloylpiperidin-4-yl)oxy]-N-benzyl-1H-pyrrolo[2,3-b]pyridine-3-carboxamide]	26.4	2630
C=CC(=O)N1CC[C@H](Nc2cnc3[nH]cc(C(=O)NCC(F)(F)F)c3n2)C1 (single isomer, unassigned) [Example 254]	17.2	2540
